Reference: ChEMBL document CHEMBL3991601, “The target landscape of clinical kinase drugs” (Science, 2017)
Active and inactive are the calls of the source. On the calls: in the data inactive means no Kd found up to 30 µM.

How the values were obtained:
[1] = target: Cell division cycle 7-related protein kinase (Homo sapiens, UniProt O00311)
[2] = target: Myosin-10 (Homo sapiens, UniProt P35580)
[3] = target: T1, Eukaryotic translation initiation factor 5B (Homo sapiens, UniProt O60841)
T1 sequence (O60841 whole entry): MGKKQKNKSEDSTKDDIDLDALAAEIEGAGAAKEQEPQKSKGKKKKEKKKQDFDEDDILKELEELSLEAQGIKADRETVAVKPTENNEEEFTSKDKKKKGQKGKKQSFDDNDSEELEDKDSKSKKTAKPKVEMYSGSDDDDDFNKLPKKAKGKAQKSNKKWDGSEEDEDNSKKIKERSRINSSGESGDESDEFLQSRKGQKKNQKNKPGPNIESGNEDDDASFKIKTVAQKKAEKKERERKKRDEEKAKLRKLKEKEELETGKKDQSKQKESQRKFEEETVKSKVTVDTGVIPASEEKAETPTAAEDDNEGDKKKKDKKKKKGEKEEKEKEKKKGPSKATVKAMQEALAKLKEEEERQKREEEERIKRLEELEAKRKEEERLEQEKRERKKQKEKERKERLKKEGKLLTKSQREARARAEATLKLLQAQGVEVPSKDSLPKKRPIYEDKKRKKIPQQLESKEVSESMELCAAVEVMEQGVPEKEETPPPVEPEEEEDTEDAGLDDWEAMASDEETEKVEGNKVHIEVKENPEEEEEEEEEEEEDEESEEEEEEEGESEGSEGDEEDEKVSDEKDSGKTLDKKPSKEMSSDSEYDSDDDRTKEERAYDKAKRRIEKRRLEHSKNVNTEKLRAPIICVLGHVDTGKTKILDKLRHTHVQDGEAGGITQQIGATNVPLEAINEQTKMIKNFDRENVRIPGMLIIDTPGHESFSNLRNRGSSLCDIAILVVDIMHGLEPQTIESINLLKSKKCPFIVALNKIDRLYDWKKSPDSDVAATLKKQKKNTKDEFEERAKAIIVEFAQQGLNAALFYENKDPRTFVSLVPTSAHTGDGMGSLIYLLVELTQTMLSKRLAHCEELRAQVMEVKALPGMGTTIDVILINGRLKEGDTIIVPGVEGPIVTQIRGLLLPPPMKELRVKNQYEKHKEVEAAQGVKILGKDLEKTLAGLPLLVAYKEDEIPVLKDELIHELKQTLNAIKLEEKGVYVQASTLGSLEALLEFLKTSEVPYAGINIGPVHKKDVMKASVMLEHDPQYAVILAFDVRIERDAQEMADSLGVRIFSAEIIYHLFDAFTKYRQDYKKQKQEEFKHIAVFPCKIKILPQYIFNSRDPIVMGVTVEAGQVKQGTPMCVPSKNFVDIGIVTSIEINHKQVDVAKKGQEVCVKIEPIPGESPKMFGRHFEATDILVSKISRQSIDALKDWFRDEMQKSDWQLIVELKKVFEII

[4] = target: T2, UMP-CMP kinase (Homo sapiens, UniProt P30085)
T2 sequence (P30085 whole entry): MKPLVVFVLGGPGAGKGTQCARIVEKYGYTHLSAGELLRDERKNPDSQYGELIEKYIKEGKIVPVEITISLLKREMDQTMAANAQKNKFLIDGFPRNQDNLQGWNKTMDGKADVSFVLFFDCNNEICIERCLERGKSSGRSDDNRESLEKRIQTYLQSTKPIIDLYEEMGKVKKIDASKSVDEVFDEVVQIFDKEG

[5] = target: T3, Isoleucine--tRNA ligase, mitochondrial (Homo sapiens, UniProt Q9NSE4)
T3 sequence (Q9NSE4 whole entry): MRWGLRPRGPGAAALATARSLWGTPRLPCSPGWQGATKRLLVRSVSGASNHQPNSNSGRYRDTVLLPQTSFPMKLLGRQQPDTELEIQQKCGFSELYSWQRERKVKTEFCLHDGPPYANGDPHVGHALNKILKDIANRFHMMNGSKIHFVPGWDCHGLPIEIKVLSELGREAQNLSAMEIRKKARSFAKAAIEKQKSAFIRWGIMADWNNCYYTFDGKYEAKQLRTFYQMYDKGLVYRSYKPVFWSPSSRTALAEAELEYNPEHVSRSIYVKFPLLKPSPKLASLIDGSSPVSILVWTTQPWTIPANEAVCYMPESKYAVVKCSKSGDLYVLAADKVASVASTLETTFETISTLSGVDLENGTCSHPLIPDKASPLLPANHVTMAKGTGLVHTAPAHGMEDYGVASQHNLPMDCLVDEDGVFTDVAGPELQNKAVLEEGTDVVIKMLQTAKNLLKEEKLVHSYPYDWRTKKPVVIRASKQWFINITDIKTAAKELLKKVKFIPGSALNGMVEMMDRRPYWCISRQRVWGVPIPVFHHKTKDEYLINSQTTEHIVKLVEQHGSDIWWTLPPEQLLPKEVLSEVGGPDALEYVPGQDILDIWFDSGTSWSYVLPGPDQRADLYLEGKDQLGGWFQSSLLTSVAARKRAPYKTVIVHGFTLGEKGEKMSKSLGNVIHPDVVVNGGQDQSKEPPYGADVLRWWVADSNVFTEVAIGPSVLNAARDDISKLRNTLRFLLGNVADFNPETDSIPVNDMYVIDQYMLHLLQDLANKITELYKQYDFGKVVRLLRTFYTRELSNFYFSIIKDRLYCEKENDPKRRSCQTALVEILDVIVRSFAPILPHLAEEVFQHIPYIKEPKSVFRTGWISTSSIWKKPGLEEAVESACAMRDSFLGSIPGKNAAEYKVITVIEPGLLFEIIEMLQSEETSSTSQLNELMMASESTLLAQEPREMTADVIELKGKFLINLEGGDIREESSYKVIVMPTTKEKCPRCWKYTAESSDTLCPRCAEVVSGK

[6] = target: Dual specificity testis-specific protein kinase 2 (Homo sapiens, UniProt Q96S53)
Chain of Dual specificity testis-specific protein kinase 2 (Q96S53 whole entry): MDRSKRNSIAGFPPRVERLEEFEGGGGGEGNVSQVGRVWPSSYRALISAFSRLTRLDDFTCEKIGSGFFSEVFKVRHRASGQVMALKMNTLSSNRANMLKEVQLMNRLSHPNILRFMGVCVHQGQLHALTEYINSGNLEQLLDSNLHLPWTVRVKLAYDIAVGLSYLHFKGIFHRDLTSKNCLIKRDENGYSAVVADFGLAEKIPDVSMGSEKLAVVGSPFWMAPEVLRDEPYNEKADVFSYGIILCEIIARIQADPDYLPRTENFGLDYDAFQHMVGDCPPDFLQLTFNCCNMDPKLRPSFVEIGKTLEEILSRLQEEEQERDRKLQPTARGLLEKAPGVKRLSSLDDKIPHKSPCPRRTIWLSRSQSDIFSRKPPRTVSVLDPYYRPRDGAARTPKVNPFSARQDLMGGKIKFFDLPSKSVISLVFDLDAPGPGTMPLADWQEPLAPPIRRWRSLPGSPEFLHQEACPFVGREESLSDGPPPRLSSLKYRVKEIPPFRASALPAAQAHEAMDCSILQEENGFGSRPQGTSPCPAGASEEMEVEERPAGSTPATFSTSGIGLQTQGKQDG

Chain of Cell division cycle 7-related protein kinase (O00311 whole entry): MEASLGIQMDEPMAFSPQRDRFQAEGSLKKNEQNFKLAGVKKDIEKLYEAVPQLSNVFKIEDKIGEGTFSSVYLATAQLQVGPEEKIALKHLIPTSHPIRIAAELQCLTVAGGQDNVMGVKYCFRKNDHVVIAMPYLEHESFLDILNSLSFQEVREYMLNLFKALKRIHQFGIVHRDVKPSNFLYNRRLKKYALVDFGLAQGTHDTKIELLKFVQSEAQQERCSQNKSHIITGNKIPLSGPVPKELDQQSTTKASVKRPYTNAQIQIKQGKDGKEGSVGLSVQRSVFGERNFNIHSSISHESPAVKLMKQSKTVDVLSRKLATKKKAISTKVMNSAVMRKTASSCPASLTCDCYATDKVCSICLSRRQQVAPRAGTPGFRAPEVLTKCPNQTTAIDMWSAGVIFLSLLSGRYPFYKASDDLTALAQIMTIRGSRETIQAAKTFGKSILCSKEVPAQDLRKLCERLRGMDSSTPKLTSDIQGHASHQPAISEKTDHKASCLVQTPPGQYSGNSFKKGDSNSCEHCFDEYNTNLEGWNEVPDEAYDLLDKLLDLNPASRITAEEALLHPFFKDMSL
Chain of Myosin-10 (P35580 whole entry): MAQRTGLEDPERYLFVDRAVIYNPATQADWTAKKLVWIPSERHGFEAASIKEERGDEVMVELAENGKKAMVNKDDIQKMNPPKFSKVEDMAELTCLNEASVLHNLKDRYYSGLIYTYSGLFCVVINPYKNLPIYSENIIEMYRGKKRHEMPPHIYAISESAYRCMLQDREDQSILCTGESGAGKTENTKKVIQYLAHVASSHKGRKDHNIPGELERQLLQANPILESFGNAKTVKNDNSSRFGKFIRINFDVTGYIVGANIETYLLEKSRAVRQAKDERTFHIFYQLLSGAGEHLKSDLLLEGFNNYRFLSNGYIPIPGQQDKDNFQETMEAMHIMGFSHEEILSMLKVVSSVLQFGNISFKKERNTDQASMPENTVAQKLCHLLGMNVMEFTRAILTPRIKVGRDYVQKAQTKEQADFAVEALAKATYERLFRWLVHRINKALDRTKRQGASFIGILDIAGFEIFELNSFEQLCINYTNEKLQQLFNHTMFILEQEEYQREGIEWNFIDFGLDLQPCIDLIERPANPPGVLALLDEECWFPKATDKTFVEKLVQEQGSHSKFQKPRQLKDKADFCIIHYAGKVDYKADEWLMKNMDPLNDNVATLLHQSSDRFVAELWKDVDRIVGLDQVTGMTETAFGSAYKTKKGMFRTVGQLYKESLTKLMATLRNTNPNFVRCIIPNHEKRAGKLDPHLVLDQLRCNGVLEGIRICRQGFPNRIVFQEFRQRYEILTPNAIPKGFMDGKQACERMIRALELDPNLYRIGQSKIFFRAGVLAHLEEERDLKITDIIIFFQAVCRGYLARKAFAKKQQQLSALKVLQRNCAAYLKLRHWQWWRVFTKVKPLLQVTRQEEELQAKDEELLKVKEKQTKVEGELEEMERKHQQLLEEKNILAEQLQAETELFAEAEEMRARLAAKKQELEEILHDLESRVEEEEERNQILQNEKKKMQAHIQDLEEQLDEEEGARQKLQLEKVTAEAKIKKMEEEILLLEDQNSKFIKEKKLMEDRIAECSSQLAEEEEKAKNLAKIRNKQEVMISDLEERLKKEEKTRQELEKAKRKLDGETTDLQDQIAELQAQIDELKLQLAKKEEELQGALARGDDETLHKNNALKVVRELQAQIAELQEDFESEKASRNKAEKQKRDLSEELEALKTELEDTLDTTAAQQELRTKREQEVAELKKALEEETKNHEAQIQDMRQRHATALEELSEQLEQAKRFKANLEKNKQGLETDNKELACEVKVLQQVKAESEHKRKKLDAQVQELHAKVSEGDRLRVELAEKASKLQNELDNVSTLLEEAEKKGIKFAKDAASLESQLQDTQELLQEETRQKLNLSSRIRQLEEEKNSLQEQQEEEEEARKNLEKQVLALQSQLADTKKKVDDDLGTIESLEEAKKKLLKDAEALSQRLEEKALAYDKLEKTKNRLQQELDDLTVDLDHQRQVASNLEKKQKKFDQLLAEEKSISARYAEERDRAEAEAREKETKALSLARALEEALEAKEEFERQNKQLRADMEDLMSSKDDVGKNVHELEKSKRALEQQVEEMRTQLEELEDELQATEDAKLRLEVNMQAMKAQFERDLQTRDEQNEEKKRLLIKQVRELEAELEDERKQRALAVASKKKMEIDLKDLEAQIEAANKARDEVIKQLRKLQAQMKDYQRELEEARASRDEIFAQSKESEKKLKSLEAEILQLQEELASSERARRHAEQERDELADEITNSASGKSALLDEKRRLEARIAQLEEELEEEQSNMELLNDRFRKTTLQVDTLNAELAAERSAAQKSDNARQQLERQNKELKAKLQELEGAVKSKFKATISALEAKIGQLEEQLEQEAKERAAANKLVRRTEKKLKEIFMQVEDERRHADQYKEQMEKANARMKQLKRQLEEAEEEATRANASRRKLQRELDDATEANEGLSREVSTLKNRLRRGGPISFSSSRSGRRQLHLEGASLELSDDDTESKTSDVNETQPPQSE

| Structure (SMILES) | Kd [1] | Kd [2] | Kd [3] | Kd [4] | Kd [5] | Kd [6] |
| --- | --- | --- | --- | --- | --- | --- |
| CN1N=C(N)c2cn([C@@H]3O[C@H](COP(=O)(O)O)[C@@H](O)[C@H]3O)c3ncnc1c23 [TRICIRIBINE PHOSPHATE] | > 30 µM (inactive) | > 30 µM (inactive) | > 30 µM (inactive) | > 30 µM (inactive) | > 30 µM (inactive) | – |
| CNS(=O)(=O)Nc1nccc(Cc2c(C)c3ccc(Oc4ncccn4)cc3oc2=O)c1F [AVUTOMETINIB] | > 30 µM (inactive) | > 30 µM (inactive) | > 30 µM (inactive) | – | – | > 30 µM (inactive) |
| CCn1c(=O)c(-c2cc[nH]n2)cc2c(C)nc(N)nc21 [VOXTALISIB] | > 30 µM (inactive) | > 30 µM (inactive) | > 30 µM (inactive) | > 30 µM (inactive) | > 30 µM (inactive) | – |
| CC(=O)Nc1cccc(-n2c(=O)n(C3CC3)c(=O)c3c(Nc4ccc(I)cc4F)n(C)c(=O)c(C)c32)c1 [TRAMETINIB] | > 30 µM (inactive) | > 30 µM (inactive) | > 30 µM (inactive) | > 30 µM (inactive) | > 30 µM (inactive) | > 30 µM (inactive) |
| CN1CC[C@@H](c2c(O)cc(O)c3c(=O)cc(-c4ccccc4Cl)oc23)[C@@H]1CO | > 30 µM (inactive) | – | > 30 µM (inactive) | > 30 µM (inactive) | > 30 µM (inactive) | – |
| O=c1sn(-c2cccc3ccccc23)c(=O)n1Cc1ccccc1 [TIDEGLUSIB] | > 30 µM (inactive) | – | – | – | > 30 µM (inactive) | – |
| COc1cc(OC)c(/C=C/S(=O)(=O)Cc2ccc(OC)c(NCC(=O)O)c2)c(OC)c1 [RIGOSERTIB] | > 30 µM (inactive) | > 30 µM (inactive) | > 30 µM (inactive) | – | – | > 30 µM (inactive) |
| COC(=O)N[C@@H](C)CNc1nccc(-c2cn(C(C)C)nc2-c2cc(Cl)cc(NS(C)(=O)=O)c2F)n1 [ENCORAFENIB] | > 30 µM (inactive) | > 30 µM (inactive) | > 30 µM (inactive) | > 30 µM (inactive) | > 30 µM (inactive) | > 30 µM (inactive) |
| COCCNCc1ccc(-c2cc3nccc(Oc4ccc(NC(=S)NC(=O)Cc5ccc(F)cc5)cc4F)c3s2)nc1 [GLESATINIB] | > 30 µM (inactive) | > 30 µM (inactive) | > 30 µM (inactive) | > 30 µM (inactive) | > 30 µM (inactive) | > 30 µM (inactive) |
| CNC(=O)CN1CCC(Oc2cc3c(Nc4cccc(Cl)c4F)ncnc3cc2OC)CC1 [SAPITINIB] | > 30 µM (inactive) | – | > 30 µM (inactive) | – | – | > 30 µM (inactive) |
| Cn1ncc(Cl)c1-c1cc(C(=O)N[C@H](CN)Cc2cccc(F)c2)sc1Cl [AFURESERTIB] | > 30 µM (inactive) | – | > 30 µM (inactive) | – | – | – |
| Cc1cc(-c2cc(O)ccc2Cl)cc2nnc(Nc3ccc(OCCN4CCCC4)cc3)nc12 | > 30 µM (inactive) | > 30 µM (inactive) | – | > 30 µM (inactive) | – | > 30 µM (inactive) |
| C[C@@H]1CN(Cc2ccc(F)cc2)[C@@H](C)CN1C(=O)c1cc2c(C(=O)C(=O)N(C)C)cn(C)c2cc1Cl [TALMAPIMOD] | > 30 µM (inactive) | – | – | > 30 µM (inactive) | – | > 30 µM (inactive) |
| CO[C@H]1C[C@@H]2CC[C@@H](C)[C@@](O)(O2)C(=O)C(=O)N2CCCC[C@H]2C(=O)O[C@H]([C@H](C)C[C@@H]2CC[C@@H](OCCO)[C@H](OC)C2)CC(=O)[C@H](C)/C=C(\C)[C@@H](O)[C@@H](OC)C(=O)[C@H](C)C[C@H](C)/C=C/C=C/C=C/1C [EVEROLIMUS] | > 30 µM (inactive) | > 30 µM (inactive) | > 30 µM (inactive) | > 30 µM (inactive) | – | > 30 µM (inactive) |
| OCCn1cc(-c2cnc3nnn(Cc4ccc5ncccc5c4)c3n2)cn1 [PF-04217903] | > 30 µM (inactive) | > 30 µM (inactive) | – | > 30 µM (inactive) | > 30 µM (inactive) | – |
| CC(C)Nc1cc(-c2c[nH]c(C(=O)N[C@H](CO)c3cccc(Cl)c3)c2)c(Cl)cn1 [ULIXERTINIB] | > 30 µM (inactive) | > 30 µM (inactive) | – | > 30 µM (inactive) | > 30 µM (inactive) | > 30 µM (inactive) |
| O=C(O)[C@]1(Cc2cccc(Nc3nccs3)n2)CC[C@@H](Oc2cccc(Cl)c2F)CC1 [MK-5108] | > 30 µM (inactive) | > 30 µM (inactive) | > 30 µM (inactive) | > 30 µM (inactive) | > 30 µM (inactive) | – |
| Cc1ccc(-n2nc(C(C)(C)C)cc2NC(=O)NCc2cc(F)ccc2Oc2ccc3c(cnn3CCO)c2)cc1 [PEXMETINIB] | > 30 µM (inactive) | > 30 µM (inactive) | > 30 µM (inactive) | > 30 µM (inactive) | > 30 µM (inactive) | – |
| CNC(=O)c1ccc(-c2cnc3ncc(Cc4ccc5ncccc5c4)n3n2)cc1F [CAPMATINIB] | > 30 µM (inactive) | > 30 µM (inactive) | – | – | > 30 µM (inactive) | – |

The next lines start with the values.

| Kd [1] | Kd [2] | Kd [3] | Kd [4] | Kd [5] | Kd [6] | Structure (SMILES) |
| --- | --- | --- | --- | --- | --- | --- |
| > 30 µM (inactive) | – | – | – | – | – | C[C@@H](Nc1cc(F)cc(F)c1)c1cc(C(=O)N(C)C)cc2c(=O)cc(N3CCOCC3)oc12 [AZD-8186] |
| > 30 µM (inactive) | – | > 30 µM (inactive) | – | – | – | O=C(Nc1ccc(-c2ccnc(Nc3ccc(N4CCOCC4)cc3)n2)cc1)C1CCCN1 (stereo not drawn) [XL-019] |
| > 30 µM (inactive) | – | > 30 µM (inactive) | – | – | – | CCN1CCN(Cc2ccc(-c3cc4c(N[C@H](C)c5ccccc5)ncnc4[nH]3)cc2)CC1 [AEE-788] |
| > 30 µM (inactive) | > 30 µM (inactive) | – | – | > 30 µM (inactive) | > 30 µM (inactive) | O=C1NC(=O)/C(=C/c2ccc3nccc(-c4ccncc4)c3c2)S1 [GSK-1059615] |
| > 30 µM (inactive) | > 30 µM (inactive) | – | > 30 µM (inactive) | > 30 µM (inactive) | > 30 µM (inactive) | CN1CCC(CNc2ccc3ncc(-c4cccc(OC(F)(F)F)c4)n3n2)CC1 [SGI-1776] |
| > 30 µM (inactive) | > 30 µM (inactive) | > 30 µM (inactive) | – | – | > 30 µM (inactive) | Cn1cc(-c2ccc3nnc(C(F)(F)c4ccc5ncccc5c4)n3n2)cn1 [JNJ-38877605] |
| > 30 µM (inactive) | > 30 µM (inactive) | > 30 µM (inactive) | > 30 µM (inactive) | – | – | COc1cc(CCc2cc(NC(=O)c3ccc(N4C[C@@H](C)N[C@@H](C)C4)cc3)n[nH]2)cc(OC)c1 [AZD-4547] |
